Laboratory results: US4136186A, “Thieno[3,2-c]pyridine derivatives” (Parcor, priority 1976, dated 1979)
Where two headings read alike, the source gives them in different places.

What was measured:
[1] = Potentiation of hypnotics (infrahypnotic sodium pentobarbital); format: in vivo; conditions: mice, oral 50 mg/kg, thirty minutes prior to i.p. infrahypnotic sodium pentobarbital
Procedure: In addition, the compounds of the formula (I) potentiate very markedly the effect of hypnotics. Indeed, on oral administration to different groups of mice, at a dosage of 50 mg/kg, thirty minutes prior to intraperitoneal injection of an infrahypnotic dosage of sodium pentobarbital, they produce, with respect to the untreated reference animals, a marked potentiation of the barbiturate.

[2] = test system: ovalbumin-induced systemic edema; assay: Ovalbumin-induced systemic edema method; format: in vivo; conditions: Rattus norvegicus, rats, oral 100 mg/kg one hour prior to and simultaneously with ovalbumin
Procedure: (b) Ovalbumin-induced systemic edema method Rats are administered a simultaneous intraperitoneal injection of 1 ml ovalbumin and 0.5 ml of a 1% aqueous Evans Blue solution. The animals of the treated group are additionally administered orally 100 mg/kg of the test derivative, one hour prior to and simultaneously with said ovalbumin administration. The intensity of the phenomenon thus induced is scored according to a scale from 1 to 5, according to the progress of the inflammatory syndrome. Thus are determined with respect to the control group the mean intensity and the percent decrease of the edema reaction, as a function of time. The percent anti-inflammatory activity obtained 2 hours and 3 hours, respectively, after ovalbumin injection, is tabulated in following Table III: […]

[3] = test system: A.D.P.-induced blood-platelet aggregation; assay: A.D.P.-induced blood-platelet aggregation (plasma of orally treated rats); format: in vivo, rats of Wistar strain; conditions: Rattus norvegicus, oral 100 mg/kg, 3 hours after treatment, 10 μM A.D.P., read-out: Percent inhibition of blood-platelet aggregation, A.D.P.
Procedure: (§1) A blood sample is taken from the jugular vein of rats of Wistar strain. From this citrated blood, and after centrifugation, is reconstituted a plasma containing 600,000 ± 20,000 platelets per mm^3 which will be used in all aggregation determinations. (a) Determination of A.D.P.-induced blood-platelet aggregation 0.4 ml plasma is placed in a siliconized tube provided with a magnetic bar, which is also siliconized. The tube is introduced into an aggregometer connected with an optical density variation recorder. When light transmission has reached a stable value, 0.5 ml of a solution containing 10 μM A.D.P. (adenosine-diphosphate) are introduced in the tube. Blood-platelet aggregation then induces an increase of light transmission followed by a decrease subsequent to the deaggregation phase. The thus determined maximum variation of optical density characterizes the intensity of the aggregation. Different groups of 20 rats are used, each group being administered orally a test derivative, at a dosage of 100 mg/kg. The results obtained in the course of tests a) and b) are tabulated in following Table I which indicates the percent inhibition of blood-plateletaggregation obtained, with respect to the control, 3 hours after treatment.

[4] = test system: carrageenin-induced edema; assay: Localised carrageenin-induced edema method; format: in vivo; conditions: Rattus norvegicus, rats, oral 100 mg/kg at -1, 0, 1 and 2.5 hours
Procedure: (a) Localised carrageenin-induced edema method: A 1% carrageenin solution (0.1 ml) is injected in the metatarsal flexor muscles of the right hind limb of rats at time 0. The animals of the treated group are additionally administered orally 100 mg/kg of the test derivative, respectively one hour prior to and then simultaneously with the phlogogenic agent, and then one hour and 2.5 hours thereafter. The percent antiinflammatory activity, as a function of time, is determined with respect to the control group by measurements effected with a ROCH micrometer at times 0, one hour, two hours, three hours and five hours after carrageenin administration.

[5] = test system: collagen-induced blood-platelet aggregation; assay: Collagen-induced blood-platelet aggregation (plasma of orally treated rats); format: in vivo, rats of Wistar strain; conditions: Rattus norvegicus, oral 100 mg/kg, 3 hours after treatment, collagen (bovine tendon extract), read-out: Percent inhibition of blood-platelet aggregation, Collagen
Procedure: as §1, with “determinations.” for “determinations. (a) Determination of A.D.P.-induced blood-platelet aggregation”, “aggregation. (b) Determination of collagen-induced blood-platelet aggregation The A.D.P. solution is substituted with a collagen solution (bovine tendon extract).” for “aggregation.”

[6] = 2 hours after ovalbumin injection, read-out: Percent anti-inflammatory activity after 2 hours
[7] = 3 hours after ovalbumin injection, read-out: Percent anti-inflammatory activity after 3 hours
[8] = 1 hour after carrageenin, read-out: Percent anti-inflammatory activity after 1 hour
[9] = 2 hours after carrageenin, read-out: Percent anti-inflammatory activity after 2 hours
[10] = 3 hours after carrageenin, read-out: Percent anti-inflammatory activity after 3 hours
[11] = 5 hours after carrageenin, read-out: Percent anti-inflammatory activity after 5 hours

Compound | percent animals put to sleep [1] [%] | inhibition in vivo at 100 mg/kg [2, 6] [%] | inhibition in vivo at 100 mg/kg [2, 7] [%] | inhibition in vivo at 100 mg/kg [3] [%] | inhibition in vivo at 100 mg/kg [4, 8] [%] | inhibition in vivo at 100 mg/kg [4, 9] [%] | inhibition in vivo at 100 mg/kg [4, 10] [%] | inhibition in vivo at 100 mg/kg [4, 11] [%] | inhibition in vivo at 100 mg/kg [5] [%]
COC(=O)c1sc2c(c1O)CN(Cc1ccccc1Cl)CC2 [Derivative n°5, 5-o-Chlorobenzyl-3-hydroxy-2-methoxycarbonyl-4,5,6,7-tetrahydro-thieno[3,2-c]pyridine] | 70 | 47 | 55 | 64.4 | 41 | 47 | 51 | 55 | 96.7
CCOC(=O)c1sc2c(c1O)CN(CCc1ccccc1)CC2 [Derivative n°9, 2-Ethoxycarbonyl-3-hydroxy-5-phenethyl-4,5,6,7-tetrahydro-thieno[3,2-c]pyridine] | 100 | 53 | 62 | 64.5 | 42 | 46 | 50 | 54 | 93.8
COC(=O)c1sc2c(c1O)CNCC2 [Derivative n°8, 3-Hydroxy-2-methoxycarbonyl-4,5,6,7-tetrahydro-thieno[3,2-c]pyridine] | 80 | 48 | 57 | 62.1 | 43 | 49 | 53 | 55 | 94.3
CCOC(=O)c1sc2c(c1O)CN(C)CC2 [Derivative n°6, 2-Ethoxycarbonyl-3-hydroxy-5-methyl-4,5,6,7-tetrahydro-thieno[3,2-c]pyridine] | 90 | 52 | 59 | 63.8 | 34 | 40 | 43 | 48 | 93.2
CCOC(=O)c1sc2c(c1O)CN(C(=O)OCC)CC2 [Derivative n°11, 2,5-Diethoxycarbonyl-3-hydroxy-4,5,6,7-tetrahydro-thieno[3,2-c]pyridine] | 60 | 51 | 61 | 62.1 | 40 | 46 | 49 | 53 | 91
CCOC(=O)c1sc2c(c1O)CNCC2 [Derivative n°7, 2-Ethoxycarbonyl-3-hydroxy-4,5,6,7-tetrahydro-thieno[3,2-c]pyridine] | 90 | 50 | 60 | 62.5 | 36 | 41 | 45 | 52 | 95.6
CCOC(=O)c1sc2c(c1O)CN(C(=O)c1ccccc1)CC2 [Derivative n°2, 5-benzoyl-2-ethoxycarbonyl-3-hydroxy-4,5,6,7-tetrahydro-thieno[3,2-c]pyridine] | 60 | 49 | 58 | 62.8 | 42 | 48 | 50 | 53 | 94.6
CCOC(=O)c1sc2c(c1O)CN(Cc1ccccc1Cl)CC2 [Derivative n°1, 5-o-Chlorobenzyl-2-ethoxycarbonyl-3-hydroxy-4,5,6,7-tetrahydro-thieno[3,2-c]pyridine] | 60 | 54 | 63 | 61.2 | 46 | 53 | 56 | 60 | 90.2
CCOC(=O)c1sc2c(c1O)CN(Cc1ccccc1)CC2.Cl [Derivative n°4, 5-Benzyl-2-ethoxycarbonyl-3-hydroxy-4,5,6,7-tetrahydro-thieno[3,2-c]pyridine hydrochloride] | 70 | 48 | 56 | 64.8 | 39 | 45 | 50 | 53 | 95.2
CCCCOC(=O)c1sc2c(c1O)CN(Cc1ccccc1Cl)CC2 [Derivative n°10, 2-Butoxycarbonyl-5-o-chlorobenzyl-3-hydroxy-4,5,6,7-tetrahydro-thieno[3,2-c]pyridine] | 90 | 50 | 59 | 63.6 | 37 | 42 | 48 | 51 | 90.2
CCOC(=O)c1sc2c(c1OC(C)=O)CN(Cc1ccccc1Cl)CC2 [Derivative n°3, 3-acetoxy-5-o-chlorobenzyl-2-ethoxycarbonyl-4,5,6,7-tetrahydro-thieno[3,2-c]pyridine] | 80 | 51 | 59 | 62.4 | 38 | 45 | 49 | 51 | 92.9
